In patent US6534524B1, “Indazole compounds and pharmaceutical compositions for inhibiting protein kinases, and methods for their use” (Agouron Pharmaceuticals, Inc., priority 1999, dated 2003):

Tested on: human umbilical vein endothelial cells (HUVEC)
Test: HUVEC proliferation assay (VEGF-stimulated, MTT);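 for % inhibition of the proliferation of HUVEC: relative to VEGF-stimulated control minus starvation-medium baseline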
Assay type: cell-based
Settings: for % inhibition: Library III, HUVEC proliferation, nominal concentration of 0.5 nM; for % inhibition / % inhibition of the proliferation of HUVEC: crude reaction mixtures
[1] = Library II, Y=S, 0.5 mM (column head; text: nominal 0.5 nM)
[2] = Library II, Y=S, 2 mM (column head; text: nominal 2 nM)
[3] = Library I, Y = CO, nominal concentration of 10 nM
[4] = Library I, Y = NH, nominal concentration of 10 nM
[5] = Library I, Y = O, nominal concentration of 10 nM

O=C(Nc1ccc(Cl)c(Cl)c1)c1ccccc1Sc1ccc2c(/C=C/c3ccccn3)n[nH]c2c1
% inhibition: 8%

COCCCNC(=O)c1ccccc1Sc1ccc2c(/C=C/c3ccccn3)n[nH]c2c1
% inhibition of the proliferation of HUVEC [1]: 26%
% inhibition of the proliferation of HUVEC [2]: 31%

CCN1CC(NC(=O)c2ccccc2Sc2ccc3c(/C=C/c4ccccn4)n[nH]c3c2)CN1CC
% inhibition of the proliferation of HUVEC [1]: 2%
% inhibition of the proliferation of HUVEC [2]: −19%

CSCCC(CO)NC(=O)c1ccccc1Sc1ccc2c(/C=C/c3ccccn3)n[nH]c2c1 (stereo not drawn)
% inhibition: −45%

O=C(NC1CCS(=O)(=O)C1)c1ccccc1Sc1ccc2c(/C=C/c3ccccn3)n[nH]c2c1 (stereo not drawn)
% inhibition of the proliferation of HUVEC [1]: 27%
% inhibition of the proliferation of HUVEC [2]: 2%

O=C(NCc1ccc(F)cc1F)c1ccccc1Sc1ccc2c(/C=C/c3ccccn3)n[nH]c2c1
% inhibition: 11%

O=C(Nc1cccc(OC(F)(F)F)c1)c1ccccc1Sc1ccc2c(/C=C/c3ccccn3)n[nH]c2c1
% inhibition: 5%

O=C(NCCc1ccc(Cl)cc1)c1ccccc1Sc1ccc2c(/C=C/c3ccccn3)n[nH]c2c1
% inhibition: 0%

CCOC(CCCNC(=O)c1ccccc1Sc1ccc2c(/C=C/c3ccccn3)n[nH]c2c1)OCC
% inhibition: −11%

O=C(NCCCn1ccnc1)c1ccccc1Sc1ccc2c(/C=C/c3ccccn3)n[nH]c2c1
% inhibition of the proliferation of HUVEC [1]: 23%
% inhibition of the proliferation of HUVEC [2]: 23%

COc1cccc(CCNC(=O)c2ccccc2Sc2ccc3c(/C=C/c4ccccn4)n[nH]c3c2)c1
% inhibition: 8%

O=C(Nc1ccc2c(c1)OCCO2)c1ccccc1Sc1ccc2c(/C=C/c3ccccn3)n[nH]c2c1
% inhibition: −1%

CCC(C)C(CO)NC(=O)c1ccccc1Sc1ccc2c(C=Cc3ccccn3)n[nH]c2c1 (stereo not drawn)
% inhibition: −40%

Cc1ccc(CNC(=O)c2ccccc2Sc2ccc3c(/C=C/c4ccccn4)n[nH]c3c2)cc1
% inhibition of the proliferation of HUVEC [1]: 20%
% inhibition of the proliferation of HUVEC [2]: 92%

O=C(c1ccc2c(-c3nc4ccccc4[nH]3)n[nH]c2c1)N1CCN(C(=O)c2ccco2)CC1
% inhibition of the proliferation of HUVEC [3]: −20%
% inhibition of the proliferation of HUVEC [4]: 6%
% inhibition of the proliferation of HUVEC [5]: 25%

CC(C)(C)CNC(=O)c1ccccc1Sc1ccc2c(/C=C/c3ccccn3)n[nH]c2c1 [drawing 687]
% inhibition of the proliferation of HUVEC [1]: 5%
% inhibition of the proliferation of HUVEC [2]: −6%

CN(C)C(=O)c1ccc2c(-c3nc4ccccc4[nH]3)n[nH]c2c1
% inhibition of the proliferation of HUVEC [3]: 35%
% inhibition of the proliferation of HUVEC [4]: −9%
% inhibition of the proliferation of HUVEC [5]: 42%

O=C(Nc1ccc(Cl)cc1CO)c1ccccc1Sc1ccc2c(/C=C/c3ccccn3)n[nH]c2c1
% inhibition: 48%

O=C(Nc1cc(O)[nH]n1)c1ccccc1Sc1ccc2c(/C=C/c3ccccn3)n[nH]c2c1
% inhibition: −17%

O=C(NNCC(F)(F)F)c1ccccc1Sc1ccc2c(/C=C/c3ccccn3)n[nH]c2c1
% inhibition of the proliferation of HUVEC [1]: 16%
% inhibition of the proliferation of HUVEC [2]: 42%

Cc1ccc(CNC(=O)c2ccccc2Sc2ccc3c(/C=C/c4ccccn4)n[nH]c3c2)cc1C
% inhibition: −6%

CC(C)CC(CO)NC(=O)c1ccccc1Sc1ccc2c(C=Cc3ccccn3)n[nH]c2c1 (stereo not drawn) [drawing 1021]
% inhibition: −2%

Nc1cccc(F)c1CNC(=O)c1ccccc1Sc1ccc2c(/C=C/c3ccccn3)n[nH]c2c1
% inhibition: 11%

O=C(NC1CCCCC1O)c1ccccc1Sc1ccc2c(/C=C/c3ccccn3)n[nH]c2c1 (stereo not drawn)
% inhibition: −6%

CC(C)[C@@H](CO)NC(=O)c1ccccc1Sc1ccc2c(/C=C/c3ccccn3)n[nH]c2c1
% inhibition: −19%

O=C(Nc1ccc2c(c1)OCO2)c1ccccc1Sc1ccc2c(/C=C/c3ccccn3)n[nH]c2c1
% inhibition: 9%

CC(C)C(NC(=O)c1ccccc1Sc1ccc2c(/C=C/c3ccccn3)n[nH]c2c1)C(C)C
% inhibition of the proliferation of HUVEC [1]: 18%
% inhibition of the proliferation of HUVEC [2]: −2%

O=C(Nc1cccc(C(=O)c2ccc3c(/C=C/c4ccccn4)n[nH]c3c2)c1)Oc1ccccc1 [Example 41(cc), 6-[3-(Phenoxyamindo)benzoyl]-3-E-[2-(pyridin-2-yl)ethenyl]-1H-indazole]
IC50 (Homo sapiens, HUVEC, read-out: HUVEC + albumin IC50): > 0.1 µM

O=C(Nc1nc(O)nc2[nH]ncc12)c1ccccc1Sc1ccc2c(/C=C/c3ccccn3)n[nH]c2c1
% inhibition: −43%

NC(=O)CCNC(=O)c1ccccc1Sc1ccc2c(/C=C/c3ccccn3)n[nH]c2c1
% inhibition of the proliferation of HUVEC [1]: 8%
% inhibition of the proliferation of HUVEC [2]: 18%

O=C(NCC1OCCO1)c1ccccc1Sc1ccc2c(/C=C/c3ccccn3)n[nH]c2c1
% inhibition of the proliferation of HUVEC [1]: 35%
% inhibition of the proliferation of HUVEC [2]: 63%

CC(C)(C)NC(=O)c1ccccc1Sc1ccc2c(/C=C/c3ccccn3)n[nH]c2c1
% inhibition: 23%

CCOC(=O)c1ccccc1NC(=O)c1ccccc1Sc1ccc2c(/C=C/c3ccccn3)n[nH]c2c1
% inhibition: −4%

N=C(N)CNC(=O)c1ccccc1Sc1ccc2c(/C=C/c3ccccn3)n[nH]c2c1
% inhibition of the proliferation of HUVEC [1]: 7%
% inhibition of the proliferation of HUVEC [2]: −1%

CCC(CO)(CO)NC(=O)c1ccccc1Sc1ccc2c(/C=C/c3ccccn3)n[nH]c2c1
% inhibition: 61%

O=C(NCC1CCCCC1)c1ccccc1Sc1ccc2c(/C=C/c3ccccn3)n[nH]c2c1
% inhibition: 3%

CCOc1ccccc1CNC(=O)c1ccccc1Sc1ccc2c(/C=C/c3ccccn3)n[nH]c2c1
% inhibition: −9%

CCCC(CCC)NC(=O)c1ccccc1Sc1ccc2c(/C=C/c3ccccn3)n[nH]c2c1
% inhibition of the proliferation of HUVEC [1]: 1%
% inhibition of the proliferation of HUVEC [2]: 52%

C#CCNC(=O)c1ccccc1Sc1ccc2c(/C=C/c3ccccn3)n[nH]c2c1 [drawing 1123]
% inhibition: 9%

CCC(C)c1ccc(NC(=O)c2ccccc2Sc2ccc3c(/C=C/c4ccccn4)n[nH]c3c2)cc1 (stereo not drawn)
% inhibition: 81%

O=C(Nc1cc(Cl)cc(Cl)c1)c1ccccc1Sc1ccc2c(/C=C/c3ccccn3)n[nH]c2c1
% inhibition: −22%

CCOc1ccccc1CCNC(=O)c1ccccc1Sc1ccc2c(/C=C/c3ccccn3)n[nH]c2c1
% inhibition: 1%

COc1ccc(NC(=O)c2ccc3c(-c4nc5ccccc5[nH]4)n[nH]c3c2)cn1
% inhibition of the proliferation of HUVEC [3]: 81%
% inhibition of the proliferation of HUVEC [4]: 11%
% inhibition of the proliferation of HUVEC [5]: 64%

CCC(O)CNC(=O)c1ccccc1Sc1ccc2c(/C=C/c3ccccn3)n[nH]c2c1 (stereo not drawn)
% inhibition of the proliferation of HUVEC [1]: 13%
% inhibition of the proliferation of HUVEC [2]: 23%

O=C(NC1Cc2ccccc2C1)c1ccccc1Sc1ccc2c(/C=C/c3ccccn3)n[nH]c2c1
% inhibition: 7%

O=C(Nc1nc2ccccc2s1)c1ccccc1Sc1ccc2c(/C=C/c3ccccn3)n[nH]c2c1
% inhibition: −15%

O=C(NC(CO)CC1CCCCC1)c1ccccc1Sc1ccc2c(C=Cc3ccccn3)n[nH]c2c1 (stereo not drawn)
% inhibition: 13%

CCOC(=O)C1CCCN(C(=O)c2ccc3c(-c4nc5ccccc5[nH]4)n[nH]c3c2)C1 (stereo not drawn)
% inhibition of the proliferation of HUVEC [3]: 64%
% inhibition of the proliferation of HUVEC [4]: −8%
% inhibition of the proliferation of HUVEC [5]: 83%

CCCCC(CO)NC(=O)c1ccccc1Sc1ccc2c(/C=C/c3ccccn3)n[nH]c2c1 (stereo not drawn)
% inhibition: −28%

N#Cc1c(NC(=O)c2ccccc2Sc2ccc3c(/C=C/c4ccccn4)n[nH]c3c2)sc2c1CCC2
% inhibition: −9%

Cc1oc(NC(=O)c2ccccc2Sc2ccc3c(/C=C/c4ccccn4)n[nH]c3c2)c(C#N)c1C
% inhibition: 13%

CCCc1cccc(NC(=O)c2ccccc2Sc2ccc3c(/C=C/c4ccccn4)n[nH]c3c2)c1
% inhibition: −42%

O=C(Nc1ncc(Cl)s1)c1ccccc1Sc1ccc2c(/C=C/c3ccccn3)n[nH]c2c1
% inhibition: −29%

CCN(CCNC(=O)c1ccccc1Sc1ccc2c(/C=C/c3ccccn3)n[nH]c2c1)c1cccc(C)c1
% inhibition of the proliferation of HUVEC [1]: 17%
% inhibition of the proliferation of HUVEC [2]: 1%

O=C(Nc1cccc2cccnc12)c1ccccc1Sc1ccc2c(/C=C/c3ccccn3)n[nH]c2c1
% inhibition: 3%

CCCC(CO)NC(=O)c1ccccc1Sc1ccc2c(/C=C/c3ccccn3)n[nH]c2c1 (stereo not drawn)
% inhibition of the proliferation of HUVEC [1]: 44%
% inhibition of the proliferation of HUVEC [2]: 40%

O=C(NCc1ccccc1Cl)c1ccccc1Sc1ccc2c(/C=C/c3ccccn3)n[nH]c2c1
% inhibition: 7%

CC(C)c1ccc(NC(=O)c2ccccc2Sc2ccc3c(/C=C/c4ccccn4)n[nH]c3c2)cc1
% inhibition: −12%

CN(C)CCCCNC(=O)c1ccccc1Sc1ccc2c(/C=C/c3ccccn3)n[nH]c2c1
% inhibition of the proliferation of HUVEC [1]: 23%
% inhibition of the proliferation of HUVEC [2]: 16%

CS(=O)(=O)c1ccc(NC(=O)c2ccccc2Sc2ccc3c(/C=C/c4ccccn4)n[nH]c3c2)cc1
% inhibition: 19%

COc1ccc(CCNC(=O)c2ccccc2Sc2ccc3c(/C=C/c4ccccn4)n[nH]c3c2)cc1OC
% inhibition: −3%

O=C(NCCCCCCO)c1ccccc1Sc1ccc2c(/C=C/c3ccccn3)n[nH]c2c1
% inhibition: −20%

O=C(Nc1cc2ccccc2cc1O)c1ccccc1Sc1ccc2c(/C=C/c3ccccn3)n[nH]c2c1
% inhibition: 18%

O=C(Nc1cnccn1)c1ccc2c(-c3nc4ccccc4[nH]3)n[nH]c2c1 [drawing 595]
% inhibition of the proliferation of HUVEC [3]: −11%
% inhibition of the proliferation of HUVEC [4]: −7%
% inhibition of the proliferation of HUVEC [5]: 52%

Cc1ccc2ccccc2c1NC(=O)c1ccccc1Sc1ccc2c(/C=C/c3ccccn3)n[nH]c2c1
% inhibition: −19%

O=C(Nc1ncc(Cl)cc1Cl)c1ccccc1Sc1ccc2c(/C=C/c3ccccn3)n[nH]c2c1
% inhibition: 4%

O=C(Nc1ccc(Cl)nn1)c1ccccc1Sc1ccc2c(/C=C/c3ccccn3)n[nH]c2c1
% inhibition: −21%

COc1ccc(NC(=O)c2ccccc2Sc2ccc3c(/C=C/c4ccccn4)n[nH]c3c2)c(OC)n1
% inhibition: 20%

O=C(NNC(=O)c1ccccc1Sc1ccc2c(/C=C/c3ccccn3)n[nH]c2c1)c1ccc[nH]1
% inhibition of the proliferation of HUVEC [1]: 60%
% inhibition of the proliferation of HUVEC [2]: 99%
